From ChEMBL document CHEMBL3862020, “A fluorescent analogue of tauroursodeoxycholic acid reduces ER stress and is cytoprotective” (Bioorg Med Chem Lett, 2016)
Calls of active or inactive are those of the source. The rule behind the calls is not given here.

Columns and labels:
Huh-7 [1] = assay: Cytoprotective activity against tunicamycin-induced ER stress in human HuH7 cells assessed as inhibition of BIP/GRP78 mRNA levels at 1mM after 6 hrs; type: functional, cell-based
Huh-7 [2] = assay: Cytoprotective activity against DCA-induced cell death in human HuH7 cells assessed as increase in cell viability at 1 mM preincubated with cells followed by DCA addition measured after 24 hrs by MTT/INCELL assay; type: functional, cell-based
Huh-7 [3] = assay: Cytoprotective activity against DCA-induced ER stress in human HuH7 cells assessed as inhibition of XBPs mRNA levels after 6 hrs; type: functional, cell-based
Huh-7 [4] = assay: Cytoprotective activity against tunicamycin-induced ER stress in human HuH7 cells assessed as inhibition of BIP/GRP78 mRNA levels after 6 hrs; type: functional, cell-based
Huh-7 [5] = assay: Cytoprotective activity against tunicamycin-induced ER stress in human HuH7 cells assessed as inhibition of CHOP mRNA levels after 6 hrs; type: functional, cell-based
[6] = Cytotoxicity against human HuH7 cells assessed as reduction in cell viability by MTT assay; type: toxicity, cell-based; conditions: huh-7
Huh-7 [7] = assay: Cytoprotective activity against tunicamycin-induced ER stress in human HuH7 cells assessed as increase in XBPu mRNA levels after 6 hrs; type: functional, cell-based
[8] = Cytotoxicity against HEK293 cells assessed as reduction in cell viability by MTT assay; type: toxicity, cell-based; conditions: human
Huh-7 [9] = assay: Cytoprotective activity against tunicamycin-induced ER stress in human HuH7 cells assessed as inhibition of XBPs mRNA levels after 6 hrs; type: functional, cell-based
Huh-7 [10] = assay: Cytoprotective activity against tunicamycin-induced ER stress in human HuH7 cells assessed as reduction in XBPs/XBPu ratio after 6 hrs; type: functional, cell-based
Huh-7 [11] = assay: Cytoprotective activity against DCA-induced ER stress in human HuH7 cells assessed as increase in XBPu mRNA levels after 6 hrs; type: functional, cell-based
Huh-7 [12] = assay: Cytoprotective activity against DCA-induced cell death in human HuH7 cells assessed as increase in cell viability at 500 uM preincubated with cells followed by DCA addition measured after 24 hrs by MTT/INCELL assay; type: functional, cell-based
Huh-7 [13] = assay: Cytoprotective activity against DCA-induced ER stress in human HuH7 cells assessed as inhibition of […] mRNA levels after 6 hrs; type: functional, cell-based

Compound | inhibition (Huh-7 [1]) | Activity (Huh-7 [2]) | inhibition (Huh-7 [3]) | inhibition (Huh-7 [4]) | inhibition (Huh-7 [5]) | Activity [6] | Activity (Huh-7 [7]) | Activity [8] | inhibition (Huh-7 [9]) | Activity (Huh-7 [10]) | Activity (Huh-7 [11]) | Activity (Huh-7 [12]) | inhibition (Huh-7 [13])
C[C@H](CCC(=O)O)[C@H]1CC[C@H]2[C@@H]3[C@@H](O)C[C@@H]4C[C@H](O)CC[C@]4(C)[C@H]3CC[C@]12C | Active |  |  |  |  |  |  |  |  |  |  |  | 
C[C@H](CCC(=O)NCCS(=O)(=O)O)[C@H]1CC[C@H]2[C@@H]3[C@@H](O)C[C@@H]4C[C@H](O)CC[C@]4(C)[C@H]3CC[C@]12C [TAURURSODIOL] |  | Active | Active | Active | Active | Non-Toxic | Active | Non-Toxic | Active | Active | Active |  | 
C[C@H](CCC(=O)NCCS(=O)(=O)O)[C@H]1CC[C@H]2[C@@H]3[C@@H](O)C[C@@H]4C[C@H](NS(=O)(=O)c5cccc6c(N(C)C)cccc56)CCC4(C)[C@H]3CC[C@]12C (single isomer, unassigned) |  |  | Active | Active | Active | Non-Toxic | Active | Non-Toxic | Active | Active | Active | Active | Active
